Reference: patent publication US7842808B2, “Anti-migraine spirocycles” (Bristol-Myers Squibb Company, priority 2002, dated 2010)

Biological target: T1, CGRP receptor (SK-N-MC cell membranes) (Homo sapiens, UniProt O60894+Q16602)
T1 construct: endogenous in cells; host or cells: SK-N-MC cells (membrane homogenate)
Experiment: CGRP Binding Assay ([125I]-CGRP radioligand binding, SK-N-MC homogenate)
Details: displacement of [125I]-CGRP, SK-N-MC homogenate; read-out: CGRP binding IC50
Method: Tissue Culture. SK-N-MC cells were grown at 37° C. in 5% CO2 as a monolayer in medium consisting of MEM with Earle's salts and L-glutamine (Gibco) supplemented with 10% fetal bovine serum (Gibco).
Cell Pellets. […] The cells were transferred from plates to polypropylene tubes (16×100 mm) and homogenized using a polytron. Homogenates were centrifuged at 32,000×g for 30 min. The pellets were resuspended in cold hypotonic lysis buffer with 0.1% mammalian protease inhibitor cocktail (Sigma) and assayed for protein concentration. The SK-N-MC homogenate was then aliquoted and stored at −80° C. until needed.
Radioligand Binding Assay. The compounds of invention were solubilized and carried through serial dilutions using 100% DMSO. Aliquots from the compound serial dilutions were further diluted 25 fold into assay buffer (50 mM Tris-Cl pH 7.5, 5 mM MgCl2, 0.005% Triton X-100) and transferred (volume 50 μl) into 96 well assay plates. […] SK-N-MC pellets were thawed, diluted in assay buffer with fresh 0.1% mammalian protease inhibitor cocktail (Sigma), and homogenized again. SK-N-MC homogenate (5 μg/well) was added in a volume of 100 μl. The assay plates were then incubated at room temperature for 2 h. Assays were stopped by addition of excess cold wash buffer (20 mM Tris-Cl pH 7.5, 0.1% BSA) immediately followed by filtration over glass fiber filters (Whatman GF/B) previously soaked in 0.5% PEI. Non-specific binding was defined with 1 μM beta-CGRP. Protein bound radioactivity was determined using a gamma or scintillation counter.

T1 sequence (Q16602 23-461): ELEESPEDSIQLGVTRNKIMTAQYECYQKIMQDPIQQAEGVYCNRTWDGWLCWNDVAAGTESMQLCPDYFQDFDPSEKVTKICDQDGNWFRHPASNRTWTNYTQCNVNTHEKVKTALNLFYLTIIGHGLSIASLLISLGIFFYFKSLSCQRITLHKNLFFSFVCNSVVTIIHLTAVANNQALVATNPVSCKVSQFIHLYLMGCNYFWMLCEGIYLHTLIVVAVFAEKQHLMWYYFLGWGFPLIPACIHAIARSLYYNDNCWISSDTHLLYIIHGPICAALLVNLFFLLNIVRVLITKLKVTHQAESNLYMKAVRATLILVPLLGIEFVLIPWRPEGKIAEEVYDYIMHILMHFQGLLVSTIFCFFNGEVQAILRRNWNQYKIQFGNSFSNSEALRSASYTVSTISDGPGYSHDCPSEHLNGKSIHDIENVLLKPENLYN
T1 sequence (O60894 27-148): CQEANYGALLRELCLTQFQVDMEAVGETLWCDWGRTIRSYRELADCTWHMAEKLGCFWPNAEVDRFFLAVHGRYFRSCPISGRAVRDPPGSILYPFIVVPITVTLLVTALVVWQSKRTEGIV

SMILES	IC50
Cc1ccccc1NC(=O)N[C@@H](CC(=O)N1CCC(N2Cc3ccccc3NC2=O)CC1)C(=O)N1CCC(N2CCCCC2)CC1 [Example 141]	100 to 1000 nM
O=C(N[C@@H](CC(=O)N1CCC(N2Cc3ccccc3NC2=O)CC1)C(=O)N1CCC(N2CCCCC2)CC1)c1cc[nH]n1 [Example 101, (L)-1H-Pyrazole-3-carboxylic acid{1-([1,4′]bipiperidinyl-1′-carbonyl)-3-oxo-3-[4-(2-oxo-1,4-dihydro-2H-quinazolin-3-yl)-piperidin-1-yl]-propyl}-amide]	> 1000 nM
O=C(Nc1cc(F)ccc1F)N[C@@H](CC(=O)N1CCC(N2Cc3ccccc3NC2=O)CC1)C(=O)N1CCC(N2CCCCC2)CC1 [Example 184]	10 to 100 nM
COC(=O)[C@@H](Cc1ccc2[nH]nnc2c1)NC(=O)N1CCC(N2Cc3ccccc3NC2=O)CC1 [Example 48, (R)-3-(1H-Benzotriazol-5-yl)-2-{[4-(2-oxo-1,4-dihydro-2H-quinazolin-3-yl)-piperidine-1-carbonyl]-amino}-propionic acid methyl ester]	> 1000 nM
CCOC(=O)c1ccc(NC(=O)N[C@@H](CC(=O)N2CCC(N3Cc4ccccc4NC3=O)CC2)C(=O)N2CCC(N3CCCCC3)CC2)cc1 [Example 182]	100 to 1000 nM
O=C(Nc1cccc(Br)c1)N[C@@H](CC(=O)N1CCC(N2Cc3ccccc3NC2=O)CC1)C(=O)N1CCC(N2CCCCC2)CC1 [Example 176]	10 to 100 nM
O=C(Nc1cccc(Cl)c1Cl)N[C@@H](CC(=O)N1CCC(N2Cc3ccccc3NC2=O)CC1)C(=O)N1CCC(N2CCCCC2)CC1 [Example 148]	10 to 100 nM
COC(=O)[C@H](Cc1ccccc1)NC(=O)N[C@@H](CC(=O)N1CCC(N2Cc3ccccc3NC2=O)CC1)C(=O)N1CCC(N2CCCCC2)CC1 [Example 166]	100 to 1000 nM
Cc1cccc(NC(=O)N[C@@H](CC(=O)N2CCC(N3Cc4ccccc4NC3=O)CC2)C(=O)N2CCC(N3CCCCC3)CC2)c1C [Example 151]	100 to 1000 nM
Cc1cc(CC(NC(=O)N2CCC(N3Cc4ccccc4NC3=O)CC2)C(=O)OC2CCN(Cc3ccccc3)CC2)cc2cn[nH]c12 (stereo not shown) [Example 41b, 3-(7-Methyl-1H-indazol-5-yl)-2-{[4-(2-oxo-1,4-dihydro-2H-quinazolin-3-yl)-piperidine-1-carbonyl]-amino}-propionic acid 1-benzyl-piperidin-4-yl ester]	< 10 nM
O=C(N[C@H](Cc1ccc2nn[nH]c2c1)C(=O)N1CCC(N2CCCCC2)CC1)N1CCC(N2Cc3ccccc3NC2=O)CC1 [Example 49, (R)-4-(2-Oxo-1,4-dihydro-2H-quinazolin-3-yl)-piperidine-1-carboxylic acid[1-(1H-benzotriazol-5-ylmethyl)-2-[1,4′]bipiperidinyl-1′-yl-2-oxo-ethyl]-amide]	< 10 nM
Cc1cc(CC(NC(=O)N2CCC3(CC2)OC(=O)Nc2ccccc23)C(=O)NC2C3CC4CC(C3)CC2C4)cc2cn[nH]c12 (racemic) [Example 28, (±)-[1-(2-adamantyl-carbamoyl)-2-(7-methyl-1H-indazol-5-yl)-ethyl]-1′,2′-dihydro-2′-oxospiro-[4H-3′,1-benzoxazine-4,4′-piperidine]-1-carboxamide]	100 to 1000 nM
COc1ccc(Cl)cc1NC(=O)N[C@@H](CC(=O)N1CCC(N2Cc3ccccc3NC2=O)CC1)C(=O)N1CCC(N2CCCCC2)CC1 [Example 187]	100 to 1000 nM
CC(C)c1ccc(NC(=O)N[C@@H](CC(=O)N2CCC(N3Cc4ccccc4NC3=O)CC2)C(=O)N2CCC(N3CCCCC3)CC2)cc1 [Example 162]	100 to 1000 nM
Cc1ccc(NC(=O)N[C@@H](CC(=O)N2CCC(N3Cc4ccccc4NC3=O)CC2)C(=O)N2CCC(N3CCCCC3)CC2)cc1C [Example 158]	10 to 100 nM
O=C(Nc1cc(Cl)cc(Cl)c1)N[C@@H](CC(=O)N1CCC(N2Cc3ccccc3NC2=O)CC1)C(=O)N1CCC(N2CCCCC2)CC1 [Example 159]	10 to 100 nM
O=C(N[C@@H](CC(=O)N1CCC(N2Cc3ccccc3NC2=O)CC1)C(=O)N1CCC(N2CCCCC2)CC1)c1ccc(Br)cc1 [Example 119]	100 to 1000 nM
O=C(Nc1ccc2ccccc2c1)N[C@@H](CC(=O)N1CCC(N2Cc3ccccc3NC2=O)CC1)C(=O)N1CCC(N2CCCCC2)CC1 [Example 135]	100 to 1000 nM

Now from value to compound:

IC50	SMILES
10 to 100 nM	CCCCCCCN1CCN(C(=O)C(Cc2ccc3[nH]ncc3c2)NC(=O)N2CCC(N3Cc4ccccc4NC3=O)CC2)CC1 (stereo not shown) [Example 40b]
> 1000 nM	O=C(NC(Cc1ccc2[nH]ncc2c1)C(=O)N1CCN(Cc2ccc[nH]2)CC1)N1CCC(N2Cc3ccccc3NC2=O)CC1 (stereo not shown) [Example 40g]
> 1000 nM	COC(=O)C(Cc1cc(C)c2[nH]ncc2c1)NC(=O)N1CCC2(CC1)OC(=O)Nc1ccccc12 (stereo not shown) [Example 14, 3-(7-Methyl-1H-indazol-5-yl)-2-(1,2-dihydro-2-oxospiro-4H-3,1-dihydro-benzoxazine-4′4-piperidine-carbonylamino)-propionic acid methyl ester]
> 1000 nM	CCCCC(CC)CN1CCN(C(=O)C(Cc2ccc3[nH]ncc3c2)NC(=O)N2CCC(N3Cc4ccccc4NC3=O)CC2)CC1 (stereo not shown) [Example 40f]
100 to 1000 nM	CCc1cc(CC(NC(=O)N2CCC(N3Cc4ccccc4NC3=O)CC2)C(=O)OC)cc2cn[nH]c12 (racemic) [Example 44, (±)-3-(7-Ethyl-1H-indazol-5-yl)-2-{[4-(2-oxo-1,4-dihydro-2H-quinazolin-3-yl)-piperidine-1-carbonyl]-amino}-propionic acid methyl ester]
100 to 1000 nM	COC(=O)C(Cc1cc(Cl)c2[nH]ncc2c1)NC(=O)N1CCC(N2Cc3ccccc3NC2=O)CC1 (racemic) [Example 42, (±)-3-(7-Chloro-1H-indazol-5-yl)-2-{[4-(2-oxo-1,4-dihydro-2H-quinazolin-3-yl)-piperidine-1-carbonyl]-amino}-propionic acid methyl ester]
100 to 1000 nM	Cc1cc(Cl)ccc1NC(=O)N[C@@H](CC(=O)N1CCC(N2Cc3ccccc3NC2=O)CC1)C(=O)N1CCC(N2CCCCC2)CC1 [Example 191]
100 to 1000 nM	O=C(N[C@@H](CC(=O)N1CCC(N2Cc3ccccc3NC2=O)CC1)C(=O)N1CCC(N2CCCCC2)CC1)c1sc2ccccc2c1Cl [Example 125]
100 to 1000 nM	O=C(N[C@@H](CC(=O)N1CCC(N2Cc3ccccc3NC2=O)CC1)C(=O)N1CCC(N2CCCCC2)CC1)c1cccc(F)c1 [Example 105]
10 to 100 nM	O=C(Nc1ccc(F)c(Cl)c1)N[C@@H](CC(=O)N1CCC(N2Cc3ccccc3NC2=O)CC1)C(=O)N1CCC(N2CCCCC2)CC1 [Example 193]
100 to 1000 nM	Cc1cccc(CN[C@@H](CC(=O)N2CCC(N3Cc4ccccc4NC3=O)CC2)C(=O)N2CCC(N3CCCCC3)CC2)c1 [Example 95, (L)-1-[1,4′]Bipiperidinyl-1′-yl-2-((3′-methyl-phenyll)-methyl-amino)-4-[4-(2-oxo-1,4-dihydro-2H-quinazolin-3-yl)-piperidin-1-yl]-butane-1,4-dione]
100 to 1000 nM	O=C(N[C@@H](CC(=O)N1CCC(N2Cc3ccccc3NC2=O)CC1)C(=O)N1CCC(N2CCCCC2)CC1)c1ccc([N+](=O)[O-])o1 [Example 124]
100 to 1000 nM	O=C(O)C(Cc1ccc2[nH]ncc2c1)NC(=O)N1CCC(N2Cc3ccccc3NC2=O)CC1 (racemic) [Example 1, (±)-3-(1H-Indazol-5-yl)-2-{[4-(2-oxo-1,4-dihydro-2H-quinazolin-3-yl)-piperidine-1-carbonyl]-amino}-propionic acid]
